Among the test systems are DU-145 prostate; SW-620 colon; U251 CNS; IGROV1 ovarian; HCT-15 colon; SK-MEL-28 melanoma; UACC-257 melanoma; MDA-MB-435; OVCAR-5 ovarian; NCI-H460 lung; RXF 393 renal; HOP-92 NSCLC; A549 NSCLC; SF-295 CNS; EKVX NSCLC; SNB-75 CNS; COLO 205 colon; MALME-3M melanoma; M14 melanoma.
Assay in all cases: NCI anticancer screen, dose series, 48 h

The results in this text go back to PubChem BioAssay (NCI).

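Five concentrations, 48 hours, 96-well plates. TGI denotes the concentration required for complete inhibition of growth.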

Consider `CCOC(=O)c1c(NC(=O)c2cccs2)sc2c1CCCC2`, for which the TGI in the assay with DU-145 prostate was over 100 µM; with SW-620 colon, over 100 µM; with U251 CNS it was over 91.9 µM; with IGROV1 ovarian it was over 100 µM; with HCT-15 colon, over 100 µM; with SK-MEL-28 melanoma, over 100 µM. The TGI with UACC-257 melanoma is over 100 µM; in the assay with MDA-MB-435, over 100 µM; with OVCAR-5 ovarian, over 100 µM; in the assay on NCI-H460 lung it was over 100 µM; in the assay with RXF 393 renal it was 30.8 µM; in the assay with HOP-92 NSCLC it was over 100 µM. Moreover, the TGI is over 100 µM in the assay on A549 NSCLC; over 100 µM in the assay with SF-295 CNS; over 100 µM in the assay on EKVX NSCLC; 81.8 µM with SNB-75 CNS; over 100 µM in the assay with COLO 205 colon; over 74.5 µM with MALME-3M melanoma. Further, the TGI with M14 melanoma was over 100 µM.

As to `Nc1c2c(nc3cc(F)c(F)cc13)CCC2`, the TGI in the assay on DU-145 prostate, in the assay with SW-620 colon, with U251 CNS, with IGROV1 ovarian, with HCT-15 colon and with SK-MEL-28 melanoma was over 100 µM in each case. Also, the TGI is over 100 µM in the assay on UACC-257 melanoma; over 100 µM with MDA-MB-435; over 100 µM in the assay with OVCAR-5 ovarian; 54 µM in the assay with NCI-H460 lung; over 100 µM in the assay on RXF 393 renal; over 100 µM with HOP-92 NSCLC. Besides, the TGI with A549 NSCLC, with SF-295 CNS, with EKVX NSCLC, in the assay on SNB-75 CNS, in the assay on COLO 205 colon and in the assay on MALME-3M melanoma was over 100 µM each time. For the same molecule, in the assay with M14 melanoma, the TGI is over 100 µM.

For the molecule `CCCn1c2ccccc2c2ccc3c(c21)C(=O)C=CC3=O`, the TGI is over 10 µM in the assay with DU-145 prostate; 3.27 µM with SW-620 colon; over 10 µM in the assay on U251 CNS; over 10 µM with IGROV1 ovarian; 4.7 µM in the assay with HCT-15 colon; over 3.16 µM with SK-MEL-28 melanoma. Further, the TGI in the assay with UACC-257 melanoma was 5.48 µM; in the assay with MDA-MB-435, 5.29 µM; in the assay on OVCAR-5 ovarian, over 10 µM; in the assay with NCI-H460 lung, over 10 µM; in the assay with RXF 393 renal it was 3.87 µM; with HOP-92 NSCLC, 3.8 µM. Also, the TGI in the assay with A549 NSCLC was over 10 µM; in the assay with SF-295 CNS it was over 10 µM; with EKVX NSCLC it was over 7.95 µM; in the assay with SNB-75 CNS, over 10 µM; in the assay on COLO 205 colon, 5.17 µM; in the assay on MALME-3M melanoma, 4.02 µM. Also, the TGI in the assay with M14 melanoma was over 6.11 µM.

As to `O=C(NC(Cc1c[nH]c2ccccc12)C(=O)Nc1ccc(Br)cc1)OCc1ccccc1` (stereo not drawn), the TGI in the assay on DU-145 prostate came out at 29.2 µM; with SW-620 colon, 54.6 µM; with U251 CNS it was 25.1 µM; in the assay with IGROV1 ovarian, 27.6 µM; in the assay with HCT-15 colon it was 26.7 µM; in the assay on SK-MEL-28 melanoma, 30.5 µM. Also, the TGI in the assay on UACC-257 melanoma was 23.5 µM; in the assay on MDA-MB-435 it was 22.1 µM; in the assay on OVCAR-5 ovarian, 35.1 µM; with NCI-H460 lung it was 20.1 µM; in the assay with RXF 393 renal, 22.2 µM; in the assay with HOP-92 NSCLC it was 19.1 µM. Besides, the TGI with A549 NSCLC is over 100 µM; in the assay with SF-295 CNS, 23.9 µM; in the assay on EKVX NSCLC, 22.3 µM; in the assay with SNB-75 CNS, 34.7 µM; in the assay with COLO 205 colon, 24.7 µM; with MALME-3M melanoma, 34.1 µM. Moreover, the TGI with M14 melanoma came to 27.6 µM.

Turning to `CC(=O)Nc1ccc(N2C(=O)/C(=C\c3cccc(Oc4ccccc4)c3)S(=O)(=O)C2c2ccccc2)cc1` (stereo not drawn), the TGI in the assay with DU-145 prostate, with SW-620 colon, in the assay with U251 CNS, in the assay on IGROV1 ovarian, with HCT-15 colon and with SK-MEL-28 melanoma was over 100 µM in each case. Moreover, the TGI in the assay with UACC-257 melanoma, with MDA-MB-435, in the assay with OVCAR-5 ovarian, in the assay with NCI-H460 lung, in the assay with RXF 393 renal and in the assay on HOP-92 NSCLC was over 100 µM in each case. Further, the TGI with A549 NSCLC, in the assay on SF-295 CNS, in the assay with EKVX NSCLC, in the assay on SNB-75 CNS, in the assay with COLO 205 colon and in the assay with MALME-3M melanoma was over 100 µM throughout. In the assay with M14 melanoma, the TGI is over 100 µM.

For `CN(Cc1cnc2nc(N)nc(N)c2n1)c1ccc(C(=O)NC(CCC(=O)NCCC(P(=O)(O)O)P(=O)(O)O)C(=O)O)cc1` (stereo not drawn), the TGI with DU-145 prostate, with SW-620 colon, in the assay on U251 CNS, in the assay on IGROV1 ovarian, in the assay on HCT-15 colon and in the assay on SK-MEL-28 melanoma was over 100 µM in each case. Further, the TGI in the assay with UACC-257 melanoma, in the assay on MDA-MB-435, in the assay with OVCAR-5 ovarian, in the assay on NCI-H460 lung, in the assay with RXF 393 renal and with HOP-92 NSCLC was over 100 µM each time. Also, the TGI in the assay on A549 NSCLC, in the assay on SF-295 CNS, in the assay with EKVX NSCLC, in the assay with SNB-75 CNS, with COLO 205 colon and in the assay with MALME-3M melanoma was over 100 µM throughout. Further, in the assay with M14 melanoma, the TGI is over 100 µM.

Regarding `COC(=O)CC(C#N)(OP1(=O)OC(c2ccccc2)C(C)N1C)c1ccccc1` (stereo not drawn), the TGI is over 100 µM with DU-145 prostate; 43.6 µM with SW-620 colon; 87.3 µM with U251 CNS; over 100 µM in the assay on IGROV1 ovarian; over 100 µM with HCT-15 colon; over 100 µM in the assay with SK-MEL-28 melanoma. Moreover, the TGI came to 46.4 µM in the assay with UACC-257 melanoma; 53.7 µM with MDA-MB-435; 69.6 µM in the assay on OVCAR-5 ovarian; 44.4 µM in the assay on NCI-H460 lung; 52.3 µM with RXF 393 renal; 85.8 µM in the assay on HOP-92 NSCLC. For the same molecule, the TGI in the assay on A549 NSCLC is over 100 µM; in the assay on SF-295 CNS, over 100 µM; in the assay with EKVX NSCLC it was 60.3 µM; with SNB-75 CNS, over 100 µM; with COLO 205 colon it was over 100 µM; in the assay on MALME-3M melanoma it was over 100 µM. The TGI in the assay with M14 melanoma was over 100 µM.
